The text below walks through data of ChEMBL document CHEMBL4138209, “Inhibitory effects and structural insights for a novel series of coumarin-based compounds that selectively target human CA IX and CA XII carbonic anhydrases” (Eur J Med Chem, 2018).

Test [1] concerns the target Carbonic anhydrase 1 (Homo sapiens, UniProt P00915). The test can be described thus: Inhibition of human carbonic anhydrase 1 incubated for 15 mins prior to testing by stopped-flow CO2 hydration assay.
Test [2] concerns the target Carbonic anhydrase 2 (Homo sapiens, UniProt P00918). The test can be described thus: Inhibition of human carbonic anhydrase 2 incubated for 15 mins prior to testing by stopped-flow CO2 hydration assay.
The target in test [3] is Carbonic anhydrase 9 (Homo sapiens, UniProt Q16790). The test is described as follows: Inhibition of human carbonic anhydrase 9 incubated for 15 mins prior to testing by stopped-flow CO2 hydration assay.
Test [4] has as its target Carbonic anhydrase 12 (Homo sapiens, UniProt O43570). The test can be described thus: Inhibition of human carbonic anhydrase 12 incubated for 15 mins prior to testing by stopped-flow CO2 hydration assay.

Sequence of Carbonic anhydrase 12 (O43570 whole entry): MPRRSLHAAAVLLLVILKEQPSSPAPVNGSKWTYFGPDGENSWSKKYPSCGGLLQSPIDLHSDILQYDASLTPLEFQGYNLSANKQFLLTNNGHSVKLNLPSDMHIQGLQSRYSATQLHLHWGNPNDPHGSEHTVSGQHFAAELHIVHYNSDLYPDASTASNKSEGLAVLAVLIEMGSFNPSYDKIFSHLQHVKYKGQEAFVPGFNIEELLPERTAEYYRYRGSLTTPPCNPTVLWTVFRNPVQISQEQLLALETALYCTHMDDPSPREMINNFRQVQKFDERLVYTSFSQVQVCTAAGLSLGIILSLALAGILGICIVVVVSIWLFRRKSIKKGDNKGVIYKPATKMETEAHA
Sequence of Carbonic anhydrase 1 (P00915 whole entry): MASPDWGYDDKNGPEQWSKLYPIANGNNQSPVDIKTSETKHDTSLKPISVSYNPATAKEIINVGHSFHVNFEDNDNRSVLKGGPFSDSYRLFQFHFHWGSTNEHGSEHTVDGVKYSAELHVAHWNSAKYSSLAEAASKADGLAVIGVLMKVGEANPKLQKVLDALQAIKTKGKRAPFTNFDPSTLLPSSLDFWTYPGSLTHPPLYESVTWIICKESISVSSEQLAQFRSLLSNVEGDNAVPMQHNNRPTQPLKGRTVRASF

For orientation: Ki means a measure of affinity in units of concentration, obtained from inhibition or displacement. Consider `Cc1c(O)ccc2c(-c3ccccc3)cc(=O)oc12`, for which the Ki in test [1] is greater than 10000 nM; in test [2], greater than 10000 nM; in test [3], 39.5 nM; in test [4] it was 402 nM.
On to `O=c1cc(-c2ccc([N+](=O)[O-])cc2)c2ccc(O)cc2o1`, for which the Ki was greater than 10000 nM in test [1], greater than 10000 nM in test [2], 20.3 nM in test [3] and 6.5 nM in test [4].
`O=C(Oc1ccc2ccc(=O)oc2c1)c1ccccc1`: the inhibition constant (Ki) in test [1] was greater than 10000 nM; in test [2] it was greater than 10000 nM; in test [3] it was 51.4 nM; in test [4], 814 nM.
As to `O=c1cc(-c2ccccc2F)c2ccc(O)cc2o1`, the inhibitory constant (Ki) was greater than 10000 nM in test [1], greater than 10000 nM in test [2] and 31.8 nM in test [3].
On to `CC(=O)Oc1ccc2oc(=O)ccc2c1`, for which the inhibition constant (Ki) in test [1] was greater than 10000 nM; in test [2], greater than 10000 nM; in test [3] it was 23.1 nM.
For `O=c1cc(-c2ccccc2)c2ccc(O)cc2o1`, the Ki in test [1] was greater than 10000 nM; in test [2] it was greater than 10000 nM; in test [3], 47.2 nM; in test [4], 90.8 nM.
Turning to `CC(=O)Oc1cc2ccc(=O)oc2cc1OC(C)=O`, the inhibition constant Ki in test [1] is greater than 10000 nM; in test [2], greater than 10000 nM; in test [3], 116 nM.
On to `O=C(Oc1cc2ccc(=O)oc2cc1OC(=O)c1ccccc1)c1ccccc1`, for which the Ki in test [1] was greater than 10000 nM; in test [2] it was greater than 10000 nM; in test [3] it was 38.4 nM.
`O=c1cc(-c2cccc(Cl)c2)c2ccc(O)cc2o1`: the Ki in test [1] was greater than 10000 nM; in test [2] it was greater than 10000 nM; in test [3], 31 nM.
`Cc1cccc(-c2cc(=O)oc3cc(O)ccc23)c1`: the Ki in test [1] was greater than 10000 nM; in test [2], greater than 10000 nM; in test [3], 17 nM.
`Cc1cccc(-c2cc(=O)oc3c(C)c(O)ccc23)c1`: the results for the Ki in test [1], in test [2] and in test [3] were greater than 10000 nM, greater than 10000 nM and 37.4 nM, respectively.
With `Nc1ccc(-c2cc(=O)oc3cc(O)ccc23)cc1`, the Ki is greater than 10000 nM in test [1], greater than 10000 nM in test [2] and 21.6 nM in test [3].
As for `Cc1c(O)ccc2c(-c3cccc(Cl)c3)cc(=O)oc12`, the Ki in test [1] was greater than 10000 nM; in test [2], greater than 10000 nM; in test [3] it was 36.6 nM.
Take `Cc1c(O)ccc2c(-c3ccc([N+](=O)[O-])cc3)cc(=O)oc12`: the Ki in test [1] is greater than 10000 nM; in test [2] it was greater than 10000 nM; in test [3] it was 30.9 nM.
Turning to `Cc1c(O)ccc2c(-c3ccccc3F)cc(=O)oc12`, the Ki is greater than 10000 nM in test [1], greater than 10000 nM in test [2] and 95.9 nM in test [3].
As to `Cc1ccc(-c2cc(=O)oc3c(C)c(O)ccc23)cc1`, the figures for the Ki in test [1], in test [2] and in test [3] were greater than 10000 nM, greater than 10000 nM and 38.2 nM, respectively.
Regarding `O=c1cc(-c2ccc(Cl)cc2)c2ccc(O)cc2o1`, the Ki in test [1] is greater than 10000 nM; in test [2], greater than 10000 nM; in test [3], 31.5 nM.
As for `O=C(Oc1ccc2oc(=O)ccc2c1)c1ccccc1`, the Ki in test [1] is greater than 10000 nM; in test [2], greater than 10000 nM; in test [3] it was 29.9 nM.
In the case of `Cc1ccc(-c2cc(=O)oc3cc(O)ccc23)cc1`, the results for the Ki in test [1], in test [2] and in test [3] were greater than 10000 nM, greater than 10000 nM and 35.8 nM, respectively.
Consider `Cc1c(O)ccc2c(-c3ccc(N)cc3)cc(=O)oc12`, for which the Ki in test [1] and in test [2] was greater than 10000 nM in each case.
With `Cc1c(O)ccc2c(-c3ccccc3Cl)cc(=O)oc12`, the inhibitory constant (Ki) in test [1] was greater than 10000 nM; in test [2], greater than 10000 nM; in test [3] it was 27.5 nM.
As to `O=c1cc(-c2ccccc2Cl)c2ccc(O)cc2o1`, the Ki in test [1] was greater than 10000 nM; in test [2] it was greater than 10000 nM; in test [3] it was 30.8 nM.
As to `Cc1c(O)ccc2c(-c3ccc(Cl)cc3)cc(=O)oc12`, the values for the Ki in test [1], in test [2] and in test [3] were greater than 10000 nM, greater than 10000 nM and 35.3 nM, respectively.
In the case of `O=c1ccc2cc(O)ccc2o1` [6-HYDROXYCOUMARIN], the Ki in test [1] was greater than 10000 nM; in test [2], greater than 10000 nM; in test [3] it was 30.5 nM; in test [4], 33.9 nM.
On to `CC(=O)Oc1ccc2ccc(=O)oc2c1` [7-ACETOXYCOUMARIN], for which the Ki in test [1] is greater than 10000 nM; in test [2] it was greater than 10000 nM; in test [3], 40.2 nM; in test [4], 573 nM.
For `O=c1ccc2cc(O)c(O)cc2o1` [ESCULETIN], the Ki in test [1] was greater than 10000 nM; in test [2], greater than 10000 nM; in test [3] it was 36.4 nM; in test [4], 9.3 nM.
